Results taken from US5508401A, “Substituted dibenzo[a,d]cycloheptene NMDA antagonists” (priority 1991, dated 1996).

Tests used:
[1] = tested on: NMDA; assay: Inhibition of NMDA-induced lethality in mice; assay type: in vivo, male Swiss-albino mice (CD-1 strain); settings: for ED50 Inhibition of NMDA-Induced Lethality / Percent of animals which survived at the dose indicated / Efficacy Ratio (ED50/TD50): ip, mice; for ED50 Inhibition of NMDA-Induced Lethality: dose required to produce 50% survival rate, NMDA 195 mg/kg i.p. 30 min after compound; for Percent of animals which survived at the dose indicated: NMDA 195 mg/kg i.p.; for Efficacy Ratio (ED50/TD50): NMDA-induced lethality vs traction reflex deficit (ataxia)
Method: The mice were pretreated with the representative test compounds followed thirty minutes later with NMDA (195 mg/kg, i.p., the ED90 dose for generalized myoclonus). The mice were then observed for 30 minutes, noting the latency of onset of generalized myoclonus (uncontrollable hind leg scratching or limbs and/or torso muscle jerking with loss of […] reflex) and death. From the latter, the ED50 for survival is determined. In this standard experimental test procedure, the specific compounds tested and their activity, which representatively establish the activity for all the compounds herein, are presented in Table I as follows:
(§1) NMDA-Induced Lethality and Traction Reflex Deficit (Ataxia)
Of Lethality Reflex Deficit
*As measured in mice. Defined as the dose required to produce 50% surviva
#Percent of animals which survived at the dose indicated.

[2] = molecular target: NMDA-associated ion channel; assay: Displacement of [3H]-TCP from its binding site in rat frontal cortex homogenates; settings: functional binding assay without added spermidine
Excerpt: Ability to Displace [^3 H]-TCP from the NMDA Ion Channel
*Functional binding assay without added spermidine.

[3] = tested on: NMDA-induced responses; settings: cited from earlier work
[4] = cited from earlier work
[5] = Traction reflex deficit (ataxia) in mice; settings: mouse, in vivo, ip, dose which produced the deficit in 50% of animals tested
Excerpt: In fact, the separation between a compound's NMDA-antagonist activity and ataxic activity (often expressed as an "efficacy ratio" of the ED50 's of these two activities) has been extensively used to evaluate its therapeutic usefulness versus its liabilities. In our studies, PCP is approximately equipotent in its abilities to antagonize NMDA-induced lethality in mice and cause ataxia as measured by the traction reflex deficit model, giving an efficacy ratio (ED50 /TD50) of approximately 1.4 (Table 1, infra).
as §1
^@ As measured in mice. Defined as the dose which produced the defici
in 50% of animals tested.

[6] = tested on: NMDA; settings: in words; cited from earlier work
[7] = tested on: cerebral ischemia; settings: in vivo; cited from earlier work
[8] = tested on: high-affinity PCP binding site in the NMDA-associated ion channel; settings: cited from earlier work
[9] = in vivo; cited from earlier work

## CC12CNC(Cc3ccc(Br)cc31)c1ccccc12 (single isomer, unassigned; (+)) [Example 6, (+)-10,11-Dihydro-3-bromo-5-methyl-10,5-(iminomethano)-5H -dibenzo[a,d]cycloheptene]
[1]
  ED50 Inhibition of NMDA-Induced Lethality: 2.2 mg/kg
[2]
  IC50: 89 nM

## CC12CNC(Cc3ccc(Br)cc31)c1ccccc12 (single isomer, unassigned; (-)) [Example 5, (-)-10,11-Dihydro-3-bromo-5-methyl-10,5-(iminomethano)-5H -dibenzo[a,d]cycloheptene]
[1]; 5 mg/kg
  Percent of animals which survived at the dose indicated: 40%
[2]
  IC50: 1010 nM

## COc1ccc2c(c1)[C@]13CCCC[C@@H]1[C@H](C2)N(C)CC3 [Dextromethorphan]
[3]
  Antagonism of NMDA-induced responses: noncompetitively antagonizes NMDA-induced responses
[1]
  Efficacy Ratio (ED50/TD50): 2.1
  ED50 Inhibition of NMDA-Induced Lethality: 21 mg/kg
[1]; in words
  Potency in antagonizing NMDA-induced lethality vs PCP and MK-801: not as potent as PCP and MK-801
[4]
  Metabolism in man: metabolized to dextrorphan in man
[2]
  IC50: 745 nM

## CN1CC[C@@]23CCCC[C@@H]2[C@@H]1Cc1ccc(O)cc13 [Dextrorphan, dextrorphan]
[1]
  ED50 Inhibition of NMDA-Induced Lethality: 13 mg/kg

## CC12CNC(Cc3ccc(Br)cc31)c1ccccc12 (stereo not shown) [Example 1, 10.11-Dihydro-3-bromo-5-methyl-10,5-(iminomethano)-5H -dibenzo[a,d]cycloheptene]
[1]
  Efficacy Ratio (ED50/TD50): 3.2
  ED50 Inhibition of NMDA-Induced Lethality: 4.6 mg/kg
[5]
  TD50: 14.7 mg/kg
[2]
  IC50: 192 nM

## CC12CNC(Cc3ccccc31)c1ccc(Br)cc12 (stereo not shown) [Example 2, 10,11-Dihydro-7-bromo-5-methyl-10,5-(iminomethano)-5H-dibenzo[a,d]cycloheptene]
[1]; 20 mg/kg
  Percent of animals which survived at the dose indicated: 60%
[2]
  IC50: 110 nM

## CC12CNC(Cc3ccc(Cl)cc31)c1ccccc12 (stereo not shown) [Example 3, 10,11-Dihydro-3-chloro-5-methyl-10,5-(iminomethano)-5H-dibenzo[a,d]cycloheptene]
[1]; 5 mg/kg
  Percent of animals which survived at the dose indicated: 90%

## CC12CNC(Cc3ccc(F)cc31)c1ccccc12 (stereo not shown) [Example 4, 10,11-Dihydro-3-fluoro-5-methyl-10,5-(iminomethano)-5H -dibenzo[a,d]cycloheptene]
[1]; 5 mg/kg
  Percent of animals which survived at the dose indicated: 90%

## C[C@]12N[C@H](Cc3ccccc31)c1ccccc12 [MK-801]
[6]
  Antagonism of NMDA-induced lethality (background statement): antagonizes NMDA-induced lethality
[7]
  Protection against cell death in cerebral ischemia models: protects against cell death in cerebral ischemia models
[8]
  Competition for the high-affinity PCP binding site: competes for the high-affinity PCP binding site
[1]
  Efficacy Ratio (ED50/TD50): 0.9
  ED50 Inhibition of NMDA-Induced Lethality: 0.19 mg/kg
[9]
  Drug discrimination: generalization for PCP: generalizes for PCP
[2]
  IC50: 2.6 nM

## c1ccc(C2(N3CCCCC3)CCCCC2)cc1 [PCP, phencyclidine]
[6]
  Antagonism of NMDA-induced lethality (background statement): antagonizes NMDA-induced lethality
[7]
  Protection against cell death in cerebral ischemia models: protects against cell death in cerebral ischemia models
[3]
  Antagonism of NMDA-induced responses: noncompetitively antagonize NMDA-induced responses
[1]
  ED50 Inhibition of NMDA-Induced Lethality: 1.9 mg/kg
[2]
  IC50: 28.2 nM
